# According to patent US20110319352A1, “Compounds That Bind Oxysterol Binding Proteins, and Methods of Use Thereof” (President and Fellows of Harvard College, priority 2008, published 2011):
# Residues, ends and D or L forms follow the SMILES beside them. *: point of attachment. Cbz = O=C(OCc1ccccc1)*
# Columns and labels:
# [1] = test system: OSBP localization in HCT-116 p21+/+ cells; test: OSBP localization by immunofluorescence confocal microscopy; type: cell-based; conditions: compound exposure 4 h (OSW-1 1 nM)
# Procedure: FIG. 22 depicts OSBP localization in HCT-116 p21^+/+ cells imaged by immunofluorescence confocal microscopy. Immunofluorescence was used to image OSBP and the trans-Golgi protein p230 after compound exposure for 4 h. […] was labeled with Hoescht 33342.
# As another way to investigate how CRAMs may affect OSBP, immunofluorescence (IF) experiments were performed in HCT-116 p21^+/+ cells to determine whether OSBP localization was altered upon treatment with different CRAMs. In untreated cells, OSBP resides largely at ER/cytoplasmic sites with a partial localization at the Golgi (FIG. 22A).
# This translocation has been reported many times in the literature as an effect of 25-OHC on OSBP. Treatment of cells with OSW-1 at 1 nM for 4 h caused a dramatic and unprecedented effect on OSBP localization (FIG. 22C). […] In this case p230 has been dispersed (see […]). The translocation of OSBP induced by 2 is distinct from that of 25-OHC. […] They also reveal that the effects on OSBP translocation by 1 and 2 are distinct from 25-OHC.
# [2] = cytotoxicity of 25-OHC (cells not named); type: cell-based; conditions: doses up to 1000 times its OSBP Kd
# OSBP protein levels = OSBP protein levels by western blot; type: cell-based
# Procedure: One unanticipated discovery from the IF studies was that, after several hours, CRAM treatment of cells caused a significant reduction in the intensity of the OSBP fluorescent signal. This could mean that CRAMs are inducing a reduction in OSBP protein levels: an effect not observed with 25-OHC. The amount of OSBP protein in cells exposed to CRAMs was measured by western blot. […] Cephalostatin 1 induced a 70% reduction in OSBP at 12 h, and OSW-1 caused a 69% reduction in OSBP at 24 h. […] This supports a situation where reduction of OSBP levels by 1 and 2 is a result of a proteasome-dependent degradation process. One possible scenario is that 1 and 2 are also causing protein level reductions of ORPs and this is the source of cytotoxicity of CRAMs.
# pERK1/2 in HCT-116 cells = test: Western blot of pERK1/2; type: cell-based; conditions: cephalostatin 1 50 nM, 25-OHC 20 μM 12 h
# Procedure: FIG. 21 depicts Western blot and densitometry analysis of pERK1/2 in HCT-116 cells during treatment with 50 nM cephalostatin 1. 25-OHC (20 μM) and okadaic acid (OKA, 10 nM) treatments were for 12 h and 24 h, respectively.
# As another test of whether CRAMs perturb a known OSBP function, it was determined whether CRAMs induce changes to the phosphorylation state of ERK1/2. As mentioned above, 25-OHC binds OSBP and causes disruption of a complex between OSBP and the phosphatases HePTP and PP2A. This blocks dephosphorylation of pERK1/2, leading to a persistence of pERK1/2. Opposing this effect is cholesterol, which binds OSBP, inducing formation of the OSBP-HePTP-PP2A ternary complex, causing ERK1/2 dephosphorylation (FIG. 13).
# HCT-116 p21+/+ cells = conditions: literature value [6]; cited from earlier work
# HCT-116 p21−/− cells [3] = conditions: cited from earlier work
# [4] = test system: HCT-116 p21−/− shNT and shOSBP cells; test: CRAM cytotoxicity after shRNA knockdown of OSBP, HCT-116 p21−/−; type: cell-based; conditions: HCT-116 p21−/−; for sensitization (GI50 shift) by OSBP knockdown: OSBP knockdown by 84%
# From the text: FIG. 17 depicts CRAM cytotoxicity in shRNA OSBP knockdown cell lines. A: Dose curves from a representative experiment. B: GI50 values of CRAMs and control compounds in HCT-116 p21−/− shNT and shOSBP cells and densitometric analysis of OSBP-levels. shNT=non-targeting shRNA, shOSBP=OSBP-targeting shRNA; * P=0.0006 (n=4), ** P=0.0002 (n=3), *** P=0.0003 (n=3), and **** P≦0.0001 (n=7) compared to shNT-treated cells.
# To determine whether the cytotoxicity of CRAMs depends on the amount of OSBP in cells, the effects of shRNA knockdown of OSBP on the growth inhibitory activity of CRAMs was measured. Treatment of HCT-116 p21^−/− cells with shRNA targeted to OSBP [24] caused an 84% reduction in the level of OSBP as measured by western blot (FIG. 17B, bottom right).
# HCT-116 p21−/− cells [5] = test: growth inhibition of HCT-116 cells lacking p21 (p21 dependence); type: cell-based; conditions: for dependence of growth inhibition on p21 status: HCT-116 p21−/− versus p21+/+
# From the text: Values are mean±SD of 3 individual experiments each performed in sextublicate or from a single experiment performed in sextublicate. Values for […] were reported in the literature (see Beutler J A, Shoemaker R H, Johnson T, Boyd M R. “Cytotoxic geranyl stilbenes from Macaranga schweinfurthii,” J. Nat. Prod. 1998, 61(12), 1509-12).
# [5] […] This shared p21 differential cytotoxicity supports the idea of a common CRAM mechanism of action and likely similar target. […] However, caution has to be exercised in concluding that compounds found to be selective for p21 deficient HCT-116 cells are truly synthetic lethal with p21. It was recently reported that compounds shown to be hypersensitive to HCT-116 p21^−/− cells was actually due to an overexpression of p53 in that cell line. Subsequent siRNA knockdown of p53 eliminated the apparent p21 synthetic lethality.
# recombinant OSBP-myc-his = molecular target: T1, recombinant OSBP-myc-his (Homo sapiens, UniProt P22059); test: competitive binding assay, displacement of [3H]-25-OHC from OSBP (charcoal-dextran, liquid scintillation counting); conditions: for displacement of OSBP-bound [3H]-25-OHC: at low micromolar-concentrations
# T1 construct: made in house; host or cells: HEK-293T (crude S100 lysate, not purified)
# T1 sequence (P22059 1-807): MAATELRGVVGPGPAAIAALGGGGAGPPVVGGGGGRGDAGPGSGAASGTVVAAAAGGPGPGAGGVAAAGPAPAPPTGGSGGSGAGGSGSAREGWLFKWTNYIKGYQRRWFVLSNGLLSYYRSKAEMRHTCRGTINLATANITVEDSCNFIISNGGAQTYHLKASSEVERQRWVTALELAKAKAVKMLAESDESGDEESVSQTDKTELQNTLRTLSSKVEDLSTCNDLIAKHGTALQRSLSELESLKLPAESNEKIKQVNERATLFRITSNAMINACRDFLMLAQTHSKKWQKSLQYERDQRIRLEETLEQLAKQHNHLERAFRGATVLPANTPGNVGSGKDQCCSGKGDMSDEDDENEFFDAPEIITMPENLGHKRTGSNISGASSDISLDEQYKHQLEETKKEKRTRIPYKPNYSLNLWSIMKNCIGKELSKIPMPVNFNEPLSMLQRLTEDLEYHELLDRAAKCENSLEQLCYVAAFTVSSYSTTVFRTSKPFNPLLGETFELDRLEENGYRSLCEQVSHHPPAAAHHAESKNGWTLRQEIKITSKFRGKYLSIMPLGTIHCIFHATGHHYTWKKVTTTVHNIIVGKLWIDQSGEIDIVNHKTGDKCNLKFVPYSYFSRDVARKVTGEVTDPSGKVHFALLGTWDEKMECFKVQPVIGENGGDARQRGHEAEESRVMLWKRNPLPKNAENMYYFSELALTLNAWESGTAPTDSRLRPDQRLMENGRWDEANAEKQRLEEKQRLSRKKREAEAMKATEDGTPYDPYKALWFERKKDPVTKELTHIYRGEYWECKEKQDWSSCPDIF
# Procedure: It has been determined that CRAMs inhibit the binding of radiolabelled 25-OHC ([^3H]-25-OHC) to recombinant OSBP-myc-his and ORP4-myc-his overexpressed in HEK-293T lysate (FIG. 18). It is known that 25-hydroxycholesterol is a high affinity ligand for OSBP and ORP4. Increasing concentrations of CRAMs or OSW-1 analogs were incubated with 20 nM [^3H]-25-OHC in OSBP-myc-his or ORP4-myc-his S100 lysate for 16 h at 4° C. after which unbound sterol was removed using charcoal-dextran and the bound sterol quantified by LCS (liquid scintillation counting).
# These experiments provide evidence that CRAMs are ligands of OSBP and ORP4, and in the case of 1 and 2, they are high affinity ligands.
# To measure the Kis of CRAMs to OSBP and ORP4 reported above, a previously reported dextran-coated charcoal assay was adapted into a 96-well format. […] To solve these limitations a binding SPA (scintillation proximity assay) for OSBP/ORPs (FIG. 26) will be developed.
# tumor xenograft = conditions: i.p. 9.3 mg/kg (Q2D×4); cited from earlier work
# NCI-60 = conditions: read-out: GI50, average against the NCI-60; cited from earlier work
compound,measurement,setting,value
"C[C@H](CCCC(C)(C)O)[C@H]1CC[C@H]2[C@@H]3CC=C4C[C@@H](O)CC[C@]4(C)[C@H]3CC[C@]12C [25-OHC, 25-hydroxycholesterol, reference compound]",effect on OSBP localization,[1],OSBP translocates to the Golgi
same,cytotoxicity,[2],not cytotoxic
same,effect on OSBP protein levels,OSBP protein levels,not observed
same,pERK1/2 levels,pERK1/2 in HCT-116 cells,had the same effect as CRAMs
CC(/C=C/C=C(C)/C=C/C=C(\C)C(=O)O)=C1/C(=O)C[C@H]2[C@@]3(C)CCC(=O)C(C)(C)[C@@H]3CC[C@]12C [(−)-stellettin E],GI50,HCT-116 p21+/+ cells,4570 nM
same,GI50,HCT-116 p21−/− cells [3]; literature value [6],39 nM
same,more cytotoxic to HCT-116 p21−/− compared to parental HCT-116,"HCT-116 p21−/− cells [3]; ratio of GI50, literature",117 times
same,more active in HCT-116 lacking the p21 protein,HCT-116 p21−/− cells [3]; reported in the literature,117 fold
C[C@@H]1[C@]2(O[C@H]3C=C4[C@@H]5CC[C@H]6Cc7nc8c(nc7C[C@]6(C)[C@H]5C[C@@H](O)[C@]4(C)[C@]31O)C[C@@H]1CC[C@H]3C4=CC[C@@H]5[C@H](C)[C@@]6(OC[C@]45C(=O)C[C@@H]3[C@@]1(C)C8)OC(C)(C)C[C@H]6O)O[C@](C)(CO)C[C@H]2O [Cephalostatin 1],effect on OSBP localization,[1],caused a significant amount of OSBP to co-localize with the plasma membrane
same,sensitization (GI50 shift) by OSBP knockdown,[4],3.5 fold
same,"differential GI50, HCT-116 p21−/− versus p21+/+",HCT-116 p21−/− cells [5]; 48 h (FIG. 14),44 fold
same,effect on OSBP protein levels,OSBP protein levels,time-dependent reduction in OSBP protein levels
same,reduction in OSBP,OSBP protein levels; at 12 h,70%
same,Ki,"recombinant OSBP-myc-his; 20 nM [3H]-25-OHC, OSBP-myc-his S100 lysate (HEK-293T), 16 h at 4° C., read-out: Ki, displacing OSBP-bound [3H]-25-OHC",50 nM
same,pERK1/2 levels,pERK1/2 in HCT-116 cells,significant increase in pERK1/2 starting at 12 h and persisting for at least 24 h
"CC(C)C[C@@H](C=O)NC(=O)[C@H](CC(C)C)NC(=O)[C@H](CC(C)C)NC(=O)OCc1ccccc1 [MG132, reference compound] (Cbz-Leu-Leu-Leu-aldehyde)",effect on OSBP protein levels,OSBP protein levels,complete rescue of OSBP levels
"COc1cc(/C=C/c2cc(O)c(C/C=C(\C)CCC=C(C)C)c(O)c2)cc2c1O[C@]1(C)C[C@@H](O)[C@@H](O)C(C)(C)[C@H]1C2 [Schweinfurthin B, schweinfurthin B, reference compound]",effect on OSBP localization,[1],"induced OSBP translocation, but in a manner similar to the 25-OHC effect"
"CC(C)C[C@H](NC(=O)[C@H](Cc1ccccc1)NC(=O)c1cnccn1)B(O)O [bortezomib, reference compound]",sensitization by OSBP knockdown,[4],does not sensitize
"C[C@H]1CCC/C=C/[C@@H]2C[C@H](O)C[C@H]2[C@H](O)/C=C/C(=O)O1 [brefeldin A, reference compound]",sensitization by OSBP knockdown,[4],does not sensitize
"CC(=O)O[C@H]1C(=O)[C@@]2(C)[C@H]([C@H](OC(=O)c3ccccc3)[C@]3(O)C[C@H](OC(=O)[C@H](O)[C@@H](NC(=O)c4ccccc4)c4ccccc4)C(C)=C1C3(C)C)[C@]1(OC(C)=O)CO[C@@H]1C[C@@H]2O [taxol, reference compound]",sensitization by OSBP knockdown,[4],does not sensitize
ritterazine B,sensitization by OSBP knockdown,[4],sensitized
same,dependence of growth inhibition on p21 status,HCT-116 p21−/− cells [5],selectively growth inhibitory for HCT-116 cells lacking p21
same,displacement of OSBP-bound [3H]-25-OHC,recombinant OSBP-myc-his,displaced the bound ligand
schweinfurthin A,sensitization by OSBP knockdown,[4],sensitizes
same,sensitization (GI50 shift) by OSBP knockdown,[4],8.9 fold
same,dependence of growth inhibition on p21 status,HCT-116 p21−/− cells [5],selectively growth inhibitory for HCT-116 cells lacking p21
same,toxicity in xenograft mice,tumor xenograft,without overt toxicity
same,tumor volume,tumor xenograft,reduction in tumor volume compared to vehicle-treated controls
same,GI50,NCI-60,360 nM
same,displacement of OSBP-bound [3H]-25-OHC,recombinant OSBP-myc-his,displaced the bound ligand
